# How the values were obtained:
# [1] = test system: IL-2, IFN-γ, TNF-α, IL-10 and iNOS mRNA; assay: Quantitative real-time PCR of cytokine and pro-inflammatory mediator mRNA in splenocytes; type: in vivo, rat; details: splenocytes of Lewis rats treated with MTA; relative to 18S rRNA (FIG. 5)
# Experimental: Spleen, liver and blood samples were also obtained from each animal. The spleens and the livers were quickly frozen in liquid nitrogen and kept in fragments at −80° C. in order to be able to conduct the studies with RT-PCR (reverse transcription and polymerase chain reaction). The blood was centrifuged at 800 rpm for 10 minutes in order to obtain the serum, which was kept at −80° C.
# The spleen and liver tissue segments were homogenised in RNA lysis buffer with 2% β-mercaptoethanol using a manual homogeniser. The total RNA was extracted using the Rneasy Mini Kit (Quiagen), following the manufacturer's instructions. During RNA purification, the DNA was eliminated by treatment with DNase. The RNA concentration and purity was determined by measuring the absorbance at 260 nm and 280 nm with a spectrophotometer (Eppendorf). Reverse transcription of the total RNA was performed using the High Capacity cDNA Archive Kit (Applied Biosystems). […]
# For the quantitative PCR, the TaqMan Universal Master Mix (Applied Biosystems) was used. […]
# The IL-2, IFN-γ, TNF-α, IL-10 and iNOS mRNA expression levels were quantified in relation to the rRNA 18S constitutive gene.
# It was assessed whether MTA had the capacity to modify the expression of cytokines and other pro-inflammatory mediators. The IL-2, IFN-γ, TNF-α, IL-10 and iNOS gene expression was analysed by means of quantitative real-time PCR (RT-PCR). […]
# [2] = test system: splenocytes (MBP-specific T-lymphocyte response); assay: Lymphocyte proliferation assay (MBP-induced, splenocytes of treated rats); type: cell-based, rat; details: splenocytes of Lewis rats immunised with MBP, day 16 after immunisation, treated in vivo with MTA; MBP 10 μg/ml
# Experimental: The splenocytes were purified by means of Ficoll Hypaque density centrifugation starting from the rats with EAE and non-immunised rats. The lymphocite proliferation assay was conducted in the same manner as previously described [Villoslada, P., et al., J. Exp Med, 2000. 191 (10):1799-806].
# Briefly, the splenocytes were placed in culture at a concentration of 2×10^6/ml in RPMI 1640 medium supplemented with 10% fetal bovine serum and penicillin/streptomycin, in the presence or absence of phytohemagglutinin (PHA, 5 μg/ml), MBP (10 μg/ml), MTA (100 μM) and DMSO. The cultures were incubated for 5 days in 96-well round-base plates (0.2 ml/well) at 37° C. The wells were struck with 0.5 μCi [^3H]TdR for 18 hours. The reading was performed using a liquid scintillation counter. The results were expressed as the mean stimulation index of the triplicate determinations.
# In order to determine whether treatment with MTA modified the peripheral immune system's response to the antigen used in the immunisation, the MBP-induced proliferation responses were measured in splenocytes of animals treated with MTA and placebo (in Lewis rats). […] Therefore, it is observed that MTA inhibits the MBP-specific lymphocyte activation, which points to its immunomodulatory effect.
# [3] = test system: inflammatory infiltrates in brain and spinal cord of Lewis rats immunised with MBP; assay: Histopathology and immunohistochemistry of brain and spinal cord; type: in vivo, rat
# Experimental: The two Lewis rat groups were anaesthetised and injected by intracardiac route with 4% paraformaldehyde in 0.1 M phosphate buffer (pH 7.6) on day 16 of the disease. The brains and the cervical, thoracic and lumbar spinal cord segments were extracted and fixated for the entire night at 4° C. After fixation, the tissues were soaked in paraffin for histopathology and immunohistochemistry.
# Histological evaluation of the brain and spinal cord sections included in paraffin was conducted. The sections were stained with hematoxylin-eosin (HE) and Luxol fast-blue in order to be able to assess the tissues' inflammation and demyelination. 24-30 sagital sections were examined for each rat. The blind semi-quantitative histological evaluation of inflammation and demyelination was conducted as previously described [Villoslada, P., et al., J. Exp Med, 2000. 191 (10):1799-806].
# The immunohistochemical procedures were conducted on […] brain and medulla sections included in paraffin. The endogenous peroxidase activity was deactivated by means of 0.3% H2O2 in methanol for 20 min.
# The sections were incubated for 30 min in PBS with 0.5% Tween® 20 and 10% goat or horse serum (Vector Laboratorios) and for 2 hours in PBS with 0.5% Tween® 20 and the primary antibodies in the following dilutions: rabbit antiglial fibrillary acid polyclonal anti-protein antibody (GFAP), 1:1,000 (Dakocytomation); mouse beta-amyloid precursor anti-protein antibody (APP), 1:100 (Zymed Laboratorios); mouse […] (OX-6), 1:200 (Serotec); rat anti-CD8 antibody, 1:250 (Serotec); type II anti-iNOS antibody, 1:250 (Serotec); rat anti-CD68 antibody (ED1), 1:200 (Serotec) and rat anti-CD43 antibody (W3/13), 1:50 (Serotec). Subsequently, the sections were washed with PBS and incubated for 45 min at room temperature with the appropriate biotinylated secondary IgG antibody (1:100 in PBS; Vector Laboratorios), followed by several washes in PBS/Tween® and a 45-min incubation at room temperature with the avidin-biotin peroxidase complex (ABC, Vector Laboratorios).
# The immunoreaction specificity was determined by incubating the sections without the primary antibody. The images were obtained using an optic microscope.
# The neuropathological evaluation confirmed the observed clinical protection. […] Inflammatory lesions were found in both the white and grey matter of the cervical, thoracic and lumbar spinal cord, and the brain. […] There were significant differences between the placebo animals and those treated with MTA in terms of both the severity and the central nervous system (CNS) regions affected. Treatment with MTA inhibits the development of inflammatory EAE in Lewis rats immunised with MBP.
# [4] = test system: acute EAE in Lewis rats immunised with MBP; assay: Acute EAE induction and clinical score in Lewis rats immunised with MBP; type: in vivo, rat
# [5] = test system: chronic-recurrent EAE (CR-EAE) in Dark Agouti (DA) rats immunised with MOG; assay: Chronic-recurrent EAE (CR-EAE) clinical score and survival in DA rats immunised with rMOG; type: in vivo, rat
# [6] = immunohistochemical staining, MTA versus placebo group
# [7] = MTA 4.3 mg/animal i.p. daily from immunisation
# [8] = 100 μM MTA i.p. daily from day 15 after immunisation
smiles,measurement,setting,value
"CSCC1OC(n2cnc3c(N)ncnc32)C(O)C1O (stereo not drawn) [MTA, 5′-methylthioadenosine]","mRNA expression of cytokines (IL-2, IFN-γ, TNF-α, IL-10, iNOS) versus placebo group",[1],lower
same,stimulation index (MBP-specific proliferation response),[2],1.18±0.4
same,number of positive ED1 and W3/13 cells in inflammatory infiltrates,[3]; [6],higher in the placebo group
same,proportions of positive OX-6 cells in inflammatory infiltrates,[3]; [6],same proportions
same,stains for APP and iNOS,"[3]; immunohistochemical staining, both groups",very low detection levels
same,number and size of the inflammatory infiltrates versus placebo,"[3]; spinal cord and brain, Lewis rats immunised with MBP (FIG. 6)",lower
same,EAE Incidence (%),[4]; [7],(28.57%)
same,EAE Incidence (rats with EAE / number of rats),[4]; [7],4/14
same,Cumulative EAE Score,[4]; MTA i.p. daily from immunisation,2 ± 0.07
same,Onset of EAE,"[4]; MTA i.p. daily from immunisation, treated animals that developed symptoms",15 ± 1.2 days
same,Cumulative EAE Score,[5]; [8],23 ± 20
same,Incidence 2nd outbreak,[5]; [8],10/10
same,Onset (days) 2nd outbreak,[5]; [8],26 ± 6 days
same,Max. EAE Score,"[5]; 100 μM MTA i.p. daily from day 15 after immunisation, scale 0-5",1.8 ± 1.5
same,survival rate versus placebo group,[5]; survival curves to score 3.5 and to exitus (FIG. 3),significantly higher

# Source: patent publication US7820637B2, “Use of 5′-methylthioadenosine (MTA) in the prevention and/or treatment of autoimmune diseases and/or transplant rejection” (Proyecto de Biomedicina Cima, S.L., priority 2005, dated 2010)
